Measured values as given in paper PMC11351550, “Synthesis, Cytotoxicity and Antioxidant Activity Evaluation of Some Thiazolyl–Catechol Compounds” (Antioxidants, 2024).
Counter-ions that a name gives are not always drawn. Like-named read-outs stand apart in the source and are kept apart here.

Columns and labels:
[1] = Ferrous ion chelation assay (ferrozine); type: biochemical; set-up: key: - represents negligible activity
Procedure: (§1) The stock solutions of the reference antioxidants (ascorbic acid, Trolox, EDTA-Na2) and compounds 3a–j were prepared by dissolving the solid powders in DMSO, obtaining 2 mM stock solutions. Following this, an additional set of solutions (0.2 mM) for each compound was obtained by dilution with DMSO. Absorption spectra of the tested compounds covering the range from 400 nm to 800 nm were recorded, indicating no absorption peaks near the wavelengths employed in the experiments. All measurements in the presented assays were made against blank samples. To quantify the activity of the compounds 3a–j, for the antiradical assays (DPPH and ABTS) and ferrous ion chelation, IC50 was calculated using Equation (1), while for the electron transfer assays (TAC, RP, FRAP and CUPRAC), the reference number of mole equivalent activity for each compound was calculated using Equation (2). (1) radical scavenging (%)=control absorbance−sample absorbance/control absorbance×100 (2) equivalents of control=sample absorbance/control absorbance
To evaluate the ability of compounds to chelate ferrous ions, an assay was performed using an adaptation of Dinis et al.’s initial report. The solutions of the tested compounds (2 mM) were mixed well with 500 µL of FeSO4 (0.125 mM), and 500 µL of ferrozine 0.315 mM. After 10 min, the absorbance of the samples was determined spectrophotometrically at λ = 562 nm. EDTA-Na2 was used as a positive control, due to its exceptional ion chelation properties.

[2] = Total Antioxidant Capacity (TAC) assay; type: biochemical; settings: 95 °C, 1.5 h, 695 nm
Procedure: as §1
The Total Antioxidant Capacity (TAC) assay was conducted following the methodology outlined in our previous publication, which was based on initial reports from the literature. A volume of 10 mL of the reagent (0.6 M H2SO4, 28 mM Na3PO4 and 4 mM (NH4)6Mo7O24) and 1000 µL of the compound and standard solutions dispensed from the 2 mM stock solutions were mixed in sealed glass test tubes and incubated in a water bath at 95 °C for 1.5 h. After cooling the test tubes to room temperature, 1000 µL of each solution was diluted with 1000 µL of water. The absorbance of the solutions was then measured at λ = 695 nm.

[3] = DPPH radical-scavenging assay; type: biochemical; settings: 30 min in the dark, 517 nm; read-out: IC50 against DPPH•
Procedure: as §1
The DPPH˙ (2,2-diphenyl-1-picrylhydrazyl) radical-scavenging assay, initially reported by Brand-Williams et al., relies on transferring a hydrogen atom from the antioxidant substrate being analyzed to the stable violet radical of DPPH˙. This action converts DPPH˙ into a nonradical stable yellow compound. The reduction in absorbance of the DPPH˙ at λ = 517 nm corresponds to the quantity of neutralized reagent. To perform the DPPH assay, we took 50, 75, 100, 125, and 150 µL of each sample from their 0.2 mM stock solutions, then we adjusted the volumes with DMSO to ensure all samples reached a uniform final volume. These solutions were mixed with 1 mL of DPPH reagent and incubated in the dark for 30 min, as presented in literature reports.

[4] = tested on: human pulmonary malignant cells (A549); experiment: Alamar Blue cytotoxicity assay, A549 cells; type: cell-based; settings: for IC50: 48 h exposure, Alamar Blue, read-out: IC50 (±SD) A549; for Selectivity Index: ratio between the calculated IC50 on BJ and A549 cells, 48 h
Procedure: (§2) BJ cells were maintained in Dulbecco’s modified Eagle’s medium (DMEM) with low glucose (1 g/L), while the A549 cells were seeded in DMEM with high glucose (5 g/L). All media were supplemented with 10% fetal bovine serum (FBS) and 1% Penicillin/Streptomycin. […] Cellular media were refreshed every other day. Cells were either subcultured or used in experiments once they reached a confluency of 80–90%.
(§3) The cytotoxicity of the synthesized compounds was evaluated by Alamar Blue (AB) assays performed on both cell lines, A549 and BJ, after a 48 h exposure, as previously reported.
(§4) Briefly, approximately 7000 A549 cells and 4000 normal BJ cells were seeded in 100 µL cellular media in 96-well plates to achieve a confluency of 70–80% at the end of the experiment and left to attach overnight before exposure. […] Post-exposure, the media were removed, and the AB assay was performed, with cells being incubated with a 200 µM solution of resazurin for 4 h. The obtained fluorescence was measured at λexcitation = 530/25; λemission = 590/35.
(§5) The experiments included three biological replicates, each one including three technical replicates. The negative control (NC) consisted of cells exposed to a cell culture medium containing 0.2% DMSO and was used for data normalization (100%).

[5] = CUPRAC (CUPric-Reducing Antioxidant Capacity) assay; type: biochemical; settings: 30 min, 450 nm
Procedure: as §1
The electron-donating capacity of compounds was assessed using the CUPRAC (CUPric-Reducing Antioxidant Capacity) method. The protocol for this assay is a modification of the reports of Alam et al., Özyürek et al., and Apak et al.. Volumes of 250 µL of CuCl2 10 mM, 1 mL of ammonium acetate buffer 1 M, and 250 µL of 7.5 mM neocuproine in ethanol were mixed with 125 µL of samples and reference compound solutions (0.2 mM). The mixtures were shaken for 30 min in the dark; after that, their absorbance was determined spectrophotometrically at λ = 450 nm.

[6] = tested on: normal human foreskin fibroblasts (BJ); experiment: Alamar Blue cytotoxicity assay, BJ cells; type: cell-based; settings: 48 h exposure, Alamar Blue
Procedure: as §2, §3, §4, §5

[7] = Ferric-Reducing Antioxidant Potential (FRAP) assay; type: biochemical; settings: pH 3.6, 593 nm
Procedure: as §1
The Ferric-Reducing Antioxidant Potential (FRAP) assay relies on the transfer of an electron from the antioxidant being assessed to Fe^3+, resulting in its conversion to Fe^2+. The resulting Fe^2+ ions are then chelated by 2,4,6-tripyridyl-s-triazine, giving a blue-colored complex, with an absorption maximum at λ = 593 nm. A 500 µL amount of the solutions (0.2 mM) of compounds and reference compounds was mixed with 600 µL FRAP reagent and 1200 µL acetate buffer (0.3 M, pH = 3.6), according to previous reports. The resulting solutions were mixed well in the dark, and their absorbance was measured spectrophotometrically.

[8] = Reducing power (RP) assay; type: biochemical; settings: 50 °C, 20 min, pH 6.6
Procedure: as §1
In the reducing power (RP) assay, the tested compounds performed the reduction of ferric ions from potassium ferricyanide, forming ferrocyanide, which gives a blue complex. The protocol followed is an adaptation of previously reported methodologies. In glass test tubes, 1000 µL of solutions containing compounds and standards measured from the 0.2 mM stock solutions were mixed with 400 µL of phosphate buffer (0.2 M, pH = 6.6) and 400 µL of K3[Fe(CN)6] solution (1% w/v). The tubes were sealed and incubated for 20 min in a water bath at 50 °C. After cooling to room temperature, 500 µL of trichloroacetic acid (10% w/w) was added to all test tubes The resulting mixtures were left for 0.5 h at room temperature. Subsequently, 250 µL of the resulting solutions were mixed with 140 µL of FeCl3 solution (0.1% w/v) and 1000 µL of distilled water, and the absorbance of the resulting solutions was determined at λ = 695 nm.

[9] = ABTS radical cation decolorization assay; type: biochemical; settings: 10 min, pH 7.4, 734 nm; read-out: IC50 against ABTS•+
Procedure: as §1
The decolorization assay of the green ABTS^•+ (2,2′-azinobis-(3-ethylbenzothiazoline-6-sulfonic acid) to ABTS, based on the report of Re et al., was conducted following our group’s published report. The chemical stability of the ABTS^•+ reagent prior to use was checked at λ = 734 nm over one hour, ensuring a consistent absorption (approximately equal to 0.7). The reagent was prepared in potassium phosphate buffer (0.1 M, pH = 7.4) and activated overnight using MnO2 [17]. In all cuvettes, we added 100 μL of the tested compound solutions (0.2 mM) in increasing concentrations up to 200 µL and 2000 µL of the ABTS^•+ reagent. The resulting mixtures were thoroughly shaken for 10 min at room temperature, in the absence of light. The optical absorbance of the resulting mixtures was then measured by spectrophotometry at λ = 734 nm.

Structure (SMILES) | melting point | IC50 [3] | IC50 [9] | ferrous ion chelation percent ([1]; 0.25 µM) | ferrous ion chelation percent ([1]; 0.5 µM) | ferrous ion chelation percent ([1]; 1 µM) | ferrous ion chelation percent ([1]; 1.5 µM) | ferrous ion chelation percent ([1]; 2 µM) | TAC Eq Ascorbic Acid [2] | Selectivity Index [4] | CUPRAC Eq Trolox [5] | FRAP Eq Trolox [7] | RP Eq Ascorbic Acid [8] | RP Eq Trolox [8] | also measured
Cc1ccc(-c2nc(-c3nc(-c4ccc(O)c(O)c4)cs3)cs2)cc1 (as salt: hydrochloride) [Compound 3j, 4-(2′-(p-tolyl)-[2,4′-bithiazol]-4-yl)benzene-1,2-diol] | 265 °C |  |  |  |  |  |  |  |  |  |  |  |  |  | 
Oc1ccc(-c2csc(-c3ccccn3)n2)cc1O (as salt: hydrochloride) [Compound 3h, 4-(2-(pyridin-2-yl)thiazol-4-yl)benzene-1,2-diol] | 230 °C |  |  |  |  |  |  |  |  |  |  |  |  |  | 
COc1cc(-c2nc(-c3ccc(O)c(O)c3)cs2)cc(OC)c1OC (as salt: hydrochloride) [Compound 3f, 4-(2-(3,4,5-trimethoxyphenyl)thiazol-4-yl)benzene-1,2-diol] | 219 °C |  |  |  |  |  |  |  |  |  |  |  |  |  | 
Cc1ccc(-c2nc(-c3nc(-c4ccc(O)c(O)c4)cs3)cs2)cc1 [Compound 3j, 4-(2′-(p-tolyl)-[2,4′-bithiazol]-4-yl)benzene-1,2-diol] |  | 49.6 µM | 17.7 µM | - | - | - | - | - | 0.36 Eq Ascorbic Acid | 5.67 | 1.61 Eq Trolox | 1.06 Eq Trolox | 1.81 Eq Ascorbic Acid | 1.50 Eq Trolox | IC50 ([4]; Homo sapiens, A549): 4.28 µM; IC50 ([6]; Homo sapiens, Fibroblast): 24.2 µM
COc1cc(-c2nc(-c3ccc(O)c(O)c3)cs2)cc(OC)c1OC [Compound 3f, 4-(2-(3,4,5-trimethoxyphenyl)thiazol-4-yl)benzene-1,2-diol] |  | 54.6 µM | 13.4 µM | - | - | - | - | - | 1.22 Eq Ascorbic Acid | 9.43 | 3.05 Eq Trolox | 1.06 Eq Trolox | 1.75 Eq Ascorbic Acid | 1.46 Eq Trolox | IC50 ([4]; Homo sapiens, A549): 8.76 µM; IC50 ([6]; Homo sapiens, Fibroblast): 82.6 µM

More lines, main results first:

melting point | IC50 [3] | IC50 [9] | Structure (SMILES) | ferrous ion chelation percent ([1]; 0.25 µM) | ferrous ion chelation percent ([1]; 0.5 µM) | ferrous ion chelation percent ([1]; 1 µM) | ferrous ion chelation percent ([1]; 1.5 µM) | ferrous ion chelation percent ([1]; 2 µM) | TAC Eq Ascorbic Acid [2] | Selectivity Index [4] | CUPRAC Eq Trolox [5] | FRAP Eq Trolox [7] | RP Eq Ascorbic Acid [8] | RP Eq Trolox [8] | also measured
240 °C |  |  | Oc1ccc(-c2csc(-c3ccncc3)n2)cc1O (as salt: hydrochloride) [Compound 3g, 4-(2-(pyridin-4-yl)thiazol-4-yl)benzene-1,2-diol] |  |  |  |  |  |  |  |  |  |  |  | 
196 °C |  |  | Cc1cccc(-c2nc(-c3ccc(O)c(O)c3)cs2)c1 (as salt: hydrochloride) [Compound 3e, 4-(2-(m-tolyl)thiazol-4-yl)benzene-1,2-diol] |  |  |  |  |  |  |  |  |  |  |  | 
258 °C |  |  | Oc1ccc(-c2csc(-c3csc(-c4ccccc4)n3)n2)cc1O (as salt: hydrochloride) [Compound 3i, 4-(2′-phenyl-[2,4′-bithiazol]-4-yl)benzene-1,2-diol] |  |  |  |  |  |  |  |  |  |  |  | 
 | 50.2 µM | 14 µM | Oc1ccc(-c2csc(-c3ccccc3)n2)cc1O [Compound 3b] | - | - | - | - | - | 1.00 Eq Ascorbic Acid | 8.82 | 2.27 Eq Trolox | 1.07 Eq Trolox | 1.60 Eq Ascorbic Acid | 1.33 Eq Trolox | IC50 [4]: 8.91 µM; IC50 [6]: 78.6 µM
